The source of these data is patent US7858776B2, “Lactams and uses thereof” (AstraZeneca AB, priority 2002, dated 2010).

Where a name gives a salt, the structure may show the parent alone.

In turn, `C[C@H](NCCc1ccccc1)C(=O)N[C@@H]1C(=O)Nc2ccccc2S[C@@H]1c1ccccc1` (as salt: hydrochloride) [Example 98, N^1-[(2R,3R)-4-Oxo-2-phenyl-2,3,4,5-tetrahydro-1,5-benzothiazepin-3-yl]-N^2-(2-Phenylethyl)-L-alaninamide] came in with a melting point of 184 to 195 °C.

`C[C@H](NC(=O)Cc1cc(F)cc(F)c1)C(=O)N[C@@H]1C(=O)NCCS[C@@H]1c1ccccc1` [Example 7, N^2-[(3,5-Difluorophenyl)acetyl]-N^1-[(6R,7R)-5-oxo-7-phenyl-1,4-thiazepan-6-yl]-L-alaninamide] gave a melting point of 128 to 133 °C. The result for `CC(C)C[C@H](O)C(=O)N[C@@H](C)C(=O)N[C@@H]1C(=O)NCCS[C@@H]1c1ccccc1` [Example 93, N^2-[(2S)-2-Hydroxy-4-methyl-1-oxopentyl]-N^1-[(6R,7R)-5-oxo-7-phenyl-1,4-thiazepan-6-yl]-L-alaninamide] reads 93 to 99 °C. For `C[C@H](NC(=O)Cc1ccccc1)C(=O)N[C@@H]1C(=O)Nc2ccccc2S[C@@H]1c1ccccc1` [Example 97, N^1-[(2R,3R)-4-Oxo-2-phenyl-2,3,4,5-tetrahydro-1,5-benzothiazepin-3-yl]-N^2-(phenylacetyl)-L-alaninamide], the melting point fell in the range of 114 to 124 °C. Molecule `C[C@H](NC(=O)Cc1cc(F)cc(F)c1)C(=O)N[C@@H]1C(=O)Nc2ccccc2S[C@@H]1c1cccs1` [Example 99, N^2-[(3,5-Difluorophenyl)acetyl]-N^1-[(2S,3R)-4-oxo-2-(2-thienyl)-2,3,4,5-tetrahydro-1,5-benzothiazepin-3-yl]-L-alaninamide] yielded a melting point of 117 to 119 °C. With `C[C@H](NC(=O)Cc1cc(F)cc(F)c1)C(=O)N[C@@H]1C(=O)Nc2ccccc2S[C@@H]1c1ccco1` [Example 101, N^2-[(3,5-Difluorophenyl)acetyl]-N^1-[(2S,3R)-2-(2-furyl)-4-oxo-2,3,4,5-tetrahydro-1,5-benzothiazepin-3-yl]-L-alaninamide], the melting point fell in the range of 125 to 130 °C. Molecule `C[C@H](NC(=O)Cc1cc(F)cc(F)c1)C(=O)N[C@@H]1C(=O)Nc2ccccc2S[C@H]1c1ccoc1` [Example 102, N^2-[(3,5-Difluorophenyl)acetyl]-N^1-[(2S,3R)-2-(3-furyl)-4-oxo-2,3,4,5-tetrahydro-1,5-benzothiazepin-3-yl]-L-alaninamide] displayed a melting point of 115 to 120 °C. Molecule `C[C@H](NC(=O)Cc1cc(F)cc(F)c1)C(=O)N[C@@H]1C(=O)Nc2ccccc2S[C@@H]1c1cc(Br)cs1` [Example 104, N^1-[(2S,3R)-2-(4-Bromo-2-thienyl)-4-oxo-2,3,4,5-tetrahydro-1,5-benzothiazepin-3-yl]-N^2-[(3,5-difluorophenyl)acetyl]-L-alaninamide] yielded a melting point of 145 to 155 °C.

Take `N[C@@H](Cc1ccccc1)C(=O)N(C(=O)Cc1cc(F)cc(F)c1)[C@@H]1C(=O)Nc2ccccc2S[C@@H]1c1ccccc1` [Example 105, N-[(3,5-Difluorophenyl)acetyl]-N-[(2R,3R)-4-oxo-2-phenyl-2,3,4,5-tetrahydro-1,5-benzothiazepin-3-yl]-L-phenylalaninamide]: the melting point fell in the range of 115 to 120 °C. The result for `O=C(Cc1cc(F)cc(F)c1)NCC(=O)N[C@@H]1C(=O)Nc2ccccc2S[C@@H]1c1ccccc1` [Example 106, N^2-[(3,5-Difluorophenyl)acetyl]-N^1-[(2R,3R)-4-oxo-2-phenyl-2,3,4,5-tetrahydro-1,5-benzothiazepin-3-yl]glycinamide] reads 125 to 130 °C. With `CC(C)[C@H](NC(=O)Cc1cc(F)cc(F)c1)C(=O)N[C@@H]1C(=O)Nc2ccccc2S[C@@H]1c1ccccc1` [Example 107, N^2-[(3,5-Difluorophenyl)acetyl]-N^1-[(2R,3R)-4-oxo-2-phenyl-2,3,4,5-tetrahydro-1,5-benzothiazepin-3-yl]-L-valinamide], the melting point is 110 to 115 °C. Molecule `CSCC[C@H](NC(=O)Cc1cc(F)cc(F)c1)C(=O)N[C@@H]1C(=O)Nc2ccccc2S[C@@H]1c1ccccc1` [Example 109, N^2-[(3,5-Difluorophenyl)acetyl]N^1-[(2R,3R)-4-oxo-2-phenyl-2,3,4,5-tetrahydro-1,5-benzothiazepin-3-yl]-L-methioninamide] showed a melting point of 85 to 90 °C.

In turn, `O=C(Cc1cc(F)cc(F)c1)N[C@@H](Cc1cc2ccccc2[nH]1)C(=O)N[C@@H]1C(=O)Nc2ccccc2S[C@@H]1c1ccccc1` [Example 110, N^2-[(3,5-Difluorophenyl)acetyl]-3-(1H-indol-2-yl)-N^1-[(2R,3R)-4-oxo-2-phenyl-2,3,4,5-tetrahydro-1,5-benzothiazepin-3-yl]-L-alaninamide] displayed a melting point of 85 to 90 °C. `C[C@H](NC(=O)Cc1ccccc1)C(=O)N[C@@H]1C(=O)Nc2ccccc2O[C@@H]1c1ccccc1` [Example 113, N^1-[(2R,3S)-4-Oxo-2-phenyl-2,3,4,5-tetrahydro-1,5-benzoxazepin-3-yl]-N^2-(phenylacetyl)-L-alaninamide] returned a melting point of 122 to 136 °C. Molecule `C[C@H](NC(=O)Cc1ccccc1F)C(=O)N[C@@H]1C(=O)Nc2ccccc2O[C@@H]1c1ccccc1` [Example 114, N^2-[(2-Fluorophenyl)acetyl]-N^1-[(2R,3S)-4-oxo-2-phenyl-2,3,4,5-tetrahydro-1,5-benzoxazepin-3-yl]-L-alaninamide] registered a melting point of 115 to 135 °C. Molecule `C[C@H](NC(=O)Cc1cccc(F)c1)C(=O)N[C@@H]1C(=O)Nc2ccccc2O[C@@H]1c1ccccc1` [Example 115, N^2-[(3-Fluorophenyl)acetyl]-N^1-[(2R,3S)-4-oxo-2-phenyl-2,3,4,5-tetrahydro-1,5-benzoxazepin-3-yl]-L-alaninamide] displayed a melting point of 130 to 140 °C. The same measure for `C[C@H](NC(=O)Cc1ccc(F)cc1)C(=O)N[C@@H]1C(=O)Nc2ccccc2O[C@@H]1c1ccccc1` [Example 116, N^2-[(4-Fluorophenyl)acetyl]-N^1-[(2R,3S)-4-oxo-2-phenyl-2,3,4,5-tetrahydro-1,5-benzoxazepin-3-yl]-L-alaninamide]: 130 to 140 °C.

A word on the melting point: it is the temperature, or range, at which the solid turns liquid.
